Measured values published in ChEMBL document CHEMBL3044659, “Docking, synthesis, and pharmacological evaluation of isoindoline derivatives as anticonvulsant agents” (Med Chem Res, 2013).
pKi: −log10 of the molar value. Activity calls are given as the source filed them.

Experiments:
Mus musculus [1] = assay: Anticonvulsant activity in pentylenetetrazole-induced seizure Swiss Mus musculus (mouse) model assessed as increase in clonic seizure threshold at 40 mg/kg, ip measured after 30 min (reference value: 38.9 +/-1.01 mg/kg); assay type: functional; settings: route intraperitoneal
[2] = target: Sodium channel protein type 2 subunit alpha (Homo sapiens, UniProt Q99250); assay: Binding affinity to Nav 1.2 (unknown origin)
Chain of Sodium channel protein type 2 subunit alpha (Q99250 whole entry): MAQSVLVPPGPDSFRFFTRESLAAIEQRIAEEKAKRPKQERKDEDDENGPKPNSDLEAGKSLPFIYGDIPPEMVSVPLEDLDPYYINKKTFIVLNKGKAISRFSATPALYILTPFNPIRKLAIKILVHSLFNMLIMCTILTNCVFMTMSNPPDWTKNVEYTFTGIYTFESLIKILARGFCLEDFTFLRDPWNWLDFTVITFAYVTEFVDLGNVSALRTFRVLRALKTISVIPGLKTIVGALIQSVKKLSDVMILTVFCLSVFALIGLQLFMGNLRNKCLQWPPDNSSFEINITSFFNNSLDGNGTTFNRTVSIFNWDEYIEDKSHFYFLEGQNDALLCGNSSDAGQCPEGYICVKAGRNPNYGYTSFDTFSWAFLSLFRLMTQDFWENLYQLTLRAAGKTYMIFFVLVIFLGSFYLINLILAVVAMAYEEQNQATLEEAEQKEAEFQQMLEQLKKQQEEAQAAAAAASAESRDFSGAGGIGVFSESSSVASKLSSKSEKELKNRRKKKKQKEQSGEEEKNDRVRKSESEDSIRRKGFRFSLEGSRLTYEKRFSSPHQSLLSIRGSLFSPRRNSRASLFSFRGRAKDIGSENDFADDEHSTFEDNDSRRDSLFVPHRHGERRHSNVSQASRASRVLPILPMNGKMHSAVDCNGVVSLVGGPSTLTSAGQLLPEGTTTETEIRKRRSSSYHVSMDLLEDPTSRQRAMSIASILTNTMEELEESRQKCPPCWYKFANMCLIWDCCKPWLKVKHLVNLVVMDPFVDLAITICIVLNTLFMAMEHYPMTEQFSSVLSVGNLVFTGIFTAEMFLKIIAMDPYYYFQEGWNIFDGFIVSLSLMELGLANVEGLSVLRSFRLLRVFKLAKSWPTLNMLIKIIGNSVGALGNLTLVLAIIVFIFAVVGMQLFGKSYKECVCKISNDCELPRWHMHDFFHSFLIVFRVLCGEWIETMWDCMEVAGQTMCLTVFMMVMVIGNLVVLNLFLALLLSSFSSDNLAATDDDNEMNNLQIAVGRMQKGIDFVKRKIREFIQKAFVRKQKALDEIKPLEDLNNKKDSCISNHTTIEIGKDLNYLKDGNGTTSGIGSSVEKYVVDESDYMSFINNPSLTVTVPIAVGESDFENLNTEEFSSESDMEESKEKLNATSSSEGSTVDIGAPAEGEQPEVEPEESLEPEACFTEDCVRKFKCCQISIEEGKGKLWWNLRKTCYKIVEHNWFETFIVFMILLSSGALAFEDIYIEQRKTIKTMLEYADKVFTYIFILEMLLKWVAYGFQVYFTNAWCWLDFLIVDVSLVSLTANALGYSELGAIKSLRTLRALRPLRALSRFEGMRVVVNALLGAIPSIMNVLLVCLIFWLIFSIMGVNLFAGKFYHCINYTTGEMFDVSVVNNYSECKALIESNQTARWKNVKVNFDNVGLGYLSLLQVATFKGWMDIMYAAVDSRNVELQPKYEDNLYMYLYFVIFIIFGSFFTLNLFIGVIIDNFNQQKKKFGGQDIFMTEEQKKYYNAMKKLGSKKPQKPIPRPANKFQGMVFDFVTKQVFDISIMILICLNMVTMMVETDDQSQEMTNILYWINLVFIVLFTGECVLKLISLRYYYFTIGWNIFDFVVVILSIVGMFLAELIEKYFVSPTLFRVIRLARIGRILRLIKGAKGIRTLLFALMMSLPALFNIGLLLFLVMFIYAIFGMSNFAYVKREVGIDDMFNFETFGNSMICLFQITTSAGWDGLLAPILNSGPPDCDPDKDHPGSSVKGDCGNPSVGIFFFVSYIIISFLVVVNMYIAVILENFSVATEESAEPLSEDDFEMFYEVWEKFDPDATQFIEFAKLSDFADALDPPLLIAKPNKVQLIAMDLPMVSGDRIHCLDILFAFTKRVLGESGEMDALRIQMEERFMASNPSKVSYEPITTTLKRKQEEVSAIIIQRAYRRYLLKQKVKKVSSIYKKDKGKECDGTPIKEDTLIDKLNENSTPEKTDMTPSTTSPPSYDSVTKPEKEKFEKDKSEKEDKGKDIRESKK

Mus musculus [3] = assay: Anticonvulsant activity in pentylenetetrazole-induced seizure Swiss Mus musculus (mouse) model assessed as increase in tonic seizure threshold at 40 mg/kg, ip measured after 30 min (reference value: 59.58 +/-1.01 mg/kg); assay type: functional; settings: route intraperitoneal
Mus musculus [4] = assay: Anticonvulsant activity in pentylenetetrazole-induced seizure Swiss Mus musculus (mouse) model assessed as increase in clonic seizure threshold at 10 to 20 mg/kg, ip measured after 30 min; assay type: functional, organism-based

## O=C(O)c1ccc(N2C(=O)c3ccccc3C2=O)cc1O
Mus musculus [1]
  Clonic seizure threshold (PTZ dose): 52.1 mg/kg
[2]
  pKi: 4.11
Mus musculus [3]
  Tonic seizure threshold (PTZ dose): 64.97 mg/kg

## O=C1c2ccccc2C(=O)N1c1ccc([N+](=O)[O-])cc1
Mus musculus [1]
  Clonic seizure threshold (PTZ dose): 41.12 mg/kg
[2]
  pKi: 4.18
Mus musculus [3]
  Tonic seizure threshold (PTZ dose): 61.6 mg/kg

## O=C1NC(=O)C(c2ccccc2)(c2ccccc2)N1 [PHENYTOIN]
Mus musculus [1]
  Clonic seizure threshold (PTZ dose): 49.2 mg/kg
Mus musculus [3]
  Tonic seizure threshold (PTZ dose): 115 mg/kg
Mus musculus [4]
  Activity: inactive

## CC(=O)Nc1ccc(N2C(=O)c3ccccc3C2=O)cc1
Mus musculus [1]
  Clonic seizure threshold (PTZ dose): 40.37 mg/kg
[2]
  pKi: 4.74
Mus musculus [3]
  Tonic seizure threshold (PTZ dose): 86.37 mg/kg

## O=C1c2ccccc2C(=O)N1c1ccccc1[N+](=O)[O-]
Mus musculus [1]
  Clonic seizure threshold (PTZ dose): 46.34 mg/kg
[2]
  pKi: 3.87
Mus musculus [3]
  Tonic seizure threshold (PTZ dose): 65.66 mg/kg

## COc1ccc(N2C(=O)c3ccccc3C2=O)c(N)c1
Mus musculus [1]
  Clonic seizure threshold (PTZ dose): 56.34 mg/kg
[2]
  pKi: 4.69
Mus musculus [3]
  Tonic seizure threshold (PTZ dose): 98.12 mg/kg

## NS(=O)(=O)c1nnc(N2C(=O)c3ccccc3C2=O)s1
Mus musculus [1]
  Clonic seizure threshold (PTZ dose): 45.14 mg/kg
[2]
  pKi: 4.21
Mus musculus [3]
  Tonic seizure threshold (PTZ dose): 62.35 mg/kg

## NS(=O)(=O)c1ccc(N2C(=O)c3ccccc3C2=O)cc1
Mus musculus [1]
  Clonic seizure threshold (PTZ dose): 33.4 mg/kg
[2]
  pKi: 4.80
Mus musculus [3]
  Tonic seizure threshold (PTZ dose): 60.56 mg/kg

## O=C(O)c1ccccc1N1C(=O)c2ccccc2C1=O [N-PHTHALOYLANTHRANILIC ACID]
Mus musculus [1]
  Clonic seizure threshold (PTZ dose): 42.95 mg/kg
[2]
  pKi: 3.47
Mus musculus [3]
  Tonic seizure threshold (PTZ dose): 58.08 mg/kg

## O=C1c2ccccc2C(=O)N1c1cccc([N+](=O)[O-])c1
Mus musculus [1]
  Clonic seizure threshold (PTZ dose): 64.89 mg/kg
[2]
  pKi: 4.66
Mus musculus [3]
  Tonic seizure threshold (PTZ dose): 96.84 mg/kg

## O=C(O)c1ccc(N2C(=O)c3ccccc3C2=O)cc1
Mus musculus [1]
  Clonic seizure threshold (PTZ dose): 46.65 mg/kg
[2]
  pKi: 4.30
Mus musculus [3]
  Tonic seizure threshold (PTZ dose): 79.94 mg/kg

## COc1ccc(N2C(=O)c3ccccc3C2=O)c([N+](=O)[O-])c1
Mus musculus [1]
  Clonic seizure threshold (PTZ dose): 49.4 mg/kg
[2]
  pKi: 3.97
Mus musculus [3]
  Tonic seizure threshold (PTZ dose): 61.92 mg/kg
